Assay results reported in ChEMBL document CHEMBL5614459, “Conformationally Constrained Isoquinolinones as Orally Efficacious Hepatitis B Capsid Assembly Modulators” (ACS Med Chem Lett, 2024).
Active and inactive are the calls of the source. The rule behind the calls is not given here.

Tests used:
[1] = system: Hepatitis B virus; experiment: Antiviral activity against Hepatitis B virus Genotype E (NCBI AB091255); assay type: functional, organism-based
[2] = system: Hepatitis B virus; experiment: Antiviral activity against Hepatitis B virus Genotype D (NCBI U95551); assay type: functional, organism-based
[3] = system: Hepatitis B virus; experiment: Anti-viral activity against Hepatitis B virus infected in mouse assessed as log10 reduction of HBV DNA levels in serum at 3 mg/kg, po qd for 7 days; assay type: functional; settings: time 7 day
[4] = Intrinsic clearance in mouse liver microsomes; assay type: ADME, Microsome; settings: read-out: CLH
[5] = system: Hepatitis B virus; experiment: Antiviral activity against Hepatitis B virus Genotype E (NCBI HE974380); assay type: functional, organism-based
[6] = Cmax in CD-1 mouse at 10 mg/kg, po; assay type: ADME, organism-based; settings: in vivo
[7] = system: Hepatitis B virus; experiment: Antiviral activity against Hepatitis B virus Genotype A (NCBI AF537372); assay type: functional, organism-based
[8] = AUC(last) in CD-1 mouse at 10 mg/kg, po; assay type: ADME, organism-based; settings: in vivo
[9] = system: Hepatitis B virus; experiment: Antiviral activity against Hepatitis B virus Genotype H (NCBI AB179747); assay type: functional, organism-based
[10] = Half life in CD-1 mouse at 10 mg/kg, po; assay type: ADME, organism-based; settings: in vivo
[11] = system: Hepatitis B virus; experiment: Antiviral activity against Hepatitis B virus Genotype F (NCBI HE974369); assay type: functional, organism-based
[12] = system: Hepatitis B virus; experiment: Antiviral activity against Hepatitis B virus genotype D infected in HepDE19 cells assessed as inhibition of viral replication by measuring decrease in intracellular rcDNA level by bDNA assay; assay type: functional, organism-based; settings: Hepatitis B virus, genotype D, HepDE19
[13] = molecular target: Core antigen (Hepatitis B virus) (UniProt Q03732); experiment: Binding affinity to Hepatitis B virus core protein assessed as inhibition of capsid assembly by measuring induction of empty capsid formation; settings: filed as modulator
Chain of Core antigen (Hepatitis B virus) (Q03732 as listed by the source): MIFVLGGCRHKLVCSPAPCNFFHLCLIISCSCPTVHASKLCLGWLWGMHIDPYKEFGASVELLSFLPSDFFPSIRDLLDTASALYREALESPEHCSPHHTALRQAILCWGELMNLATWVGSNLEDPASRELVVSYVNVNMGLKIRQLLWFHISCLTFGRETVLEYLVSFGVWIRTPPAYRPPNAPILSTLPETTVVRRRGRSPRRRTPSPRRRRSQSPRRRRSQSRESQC

[14] = system: Hepatitis B virus; experiment: Anti-viral activity against Hepatitis B virus infected in mouse assessed as log10 reduction of HBV DNA levels in serum at 1 mg/kg, po qd for 7 days; assay type: functional; settings: time 7 day
[15] = system: Hepatitis B virus; experiment: Antiviral activity against Hepatitis B virus genotype D harboring core protein-I105T mutant; assay type: functional, organism-based
[16] = system: Hepatitis B virus; experiment: Antiviral activity against Hepatitis B virus Genotype H (NCBI AB064315); assay type: functional, organism-based
[17] = system: Hepatitis B virus; experiment: Antiviral activity against Hepatitis B virus Genotype B (NCBI GQ205440); assay type: functional, organism-based
[18] = system: Hepatitis B virus; experiment: Anti-viral activity against Hepatitis B virus infected in mouse assessed as log10 reduction of HBV DNA levels in serum at 0.3 mg/kg, po qd for 7 days; assay type: functional; settings: time 7 day
[19] = molecular target: Core antigen (Hepatitis B virus) (UniProt Q03732); experiment: Binding affinity to Hepatitis B virus core protein assessed as inhibition of capsid assembly by measuring inhibition of pgRNA-encapsidation; settings: filed as modulator
[20] = system: Hepatitis B virus; experiment: Antiviral activity against Hepatitis B virus Genotype B (NCBI KU964112); assay type: functional, organism-based
[21] = system: Hepatitis B virus; experiment: Antiviral activity against Hepatitis B virus genotype D infected in HepG2-hNTCP-C4 cells assessed as inhibition of cccDNA formation by de novo infection assay; assay type: functional, organism-based
[22] = Intrinsic clearance in human liver microsomes; assay type: ADME, Microsome; settings: read-out: CLH
[23] = Cytotoxicity against human HepDE19 cells by CellTiter-Glo assay; assay type: toxicity, cell-based
[24] = system: Hepatitis B virus; experiment: Antiviral activity against Hepatitis B virus genotype D harboring core protein-T33N mutant; assay type: functional, organism-based
[25] = system: Hepatitis B virus; experiment: Antiviral activity against Hepatitis B virus Genotype C (NCBI AB198079); assay type: functional, organism-based; settings: genotype C (NCBI […])
[26] = Drug uptake in CD-1 mouse liver at 10 mg/kg, po or 2 mg/kg, iv measured after 24 hrs; assay type: ADME, organism-based; settings: read-out: Drug uptake
[27] = Selectivity index, ratio of CC50 for cytotoxicity against human HepDE19 cells to EC50 for antiviral activity against Hepatitis B virus genotype D infected in HepDE19 cells; assay type: toxicity, cell-based; settings: read-out: Ratio CC50/EC50

In the case of CN(C(=O)c1cc2cc(F)c(F)cc2[nH]1)[C@@H]1COCc2[nH]c(=O)c3cc(F)c(F)cc3c21, the EC50 [1] is reported as 1 nM, the EC50 [2] is reported as 1 nM and the “log(activity)” value [3] is reported as 2.86. The microsomal CLint [4] was 25 µL/min/mg, the EC50 [5] was 13 nM and the Cmax [6] was 2140 ng/mL. The EC50 [7] was 1 nM, the AUC(0-t) [8] was 31800 ng·h/mL and the EC50 [9] was 1 nM. It also gave a half-life [10] of 10.7 h, an EC50 [11] of 1 nM and an EC50 [12] of 5 nM. For the same compound, the Activity [13] was “Active”, the “log(activity)” value [14] was 2.92 and the EC50 [15] was 6 nM. For the same compound, the EC50 [16] was 1 nM, the EC50 [17] was 1 nM and the “log(activity)” value [18] was 1.48. For the same compound, the Activity [19] was “Active”, the EC50 [20] was 1 nM and the EC50 [21] was 26 nM. It also gave a microsomal CLint [22] of 45 µL/min/mg, a CC50 [23] greater than 10000 nM and an EC50 [24] of 63 nM. The EC50 [25] was 1 nM, the concentration at 24 h [26] was 4730 ng/g and the selectivity ratio [27] was greater than 1500.
